# Data reported in patent US10253052B2, “HBED-bisphosphonates, radiometal conjugates and their use as theranostic agents” (Five Eleven Pharma Inc., priority 2015, dated 2019).
# Values joined by “and” are separate entries in the source; they are usually repeats but may differ in a detail not shown here. Identical values can stand only once. “Also recorded” adds a separate entry of the source.
# Experiments:
# [1] = In vivo biodistribution in mice; set-up: species or system normal CD-1 male mice; conditions: for bone to blood ratio / bone to muscle ratio / Biodistribution: Blood / Biodistribution: Bone / Biodistribution: Brain / Biodistribution: Heart / Biodistribution: Kidney / Biodistribution: Liver / Biodistribution: Lung / Biodistribution: Muscle / Biodistribution: Pancreas / Biodistribution: Skin / Biodistribution: Spleen: iv; for Biodistribution result in words (organ uptake, retention, excretion): normal mice after iv injection
# Procedure: Biodistribution experiments were performed by intravenously administering ^68Ga labeled 1a-h, 2, 3, BPAMD, and [^18F]NaF into normal, healthy male CD-1 mice (25-30 g). The injection activity was 20-30 μCi/animal. […] Organs of interest were harvested, weighed, and counts of radioactivity were measured by a gamma counter. The biodistribution of each sample was calculated as a percentage of the injected dose per gram of wet tissue weight (% ID/g). Tibia and femur bones were harvested and counted as bone samples.
# [2] = In vitro binding to hydroxyapatite; conditions: 20 mg hydroxyapatite in saline, 10 min at room temperature
# Procedure: Hydroxyapatite (20 mg, Sigma-Aldrich, reagent grade powder) was incubated in isotonic saline (1 mL) for 24 h. Subsequently, either ^68Ga labeled 1a-h, 2, 3, BPAMD, or [^18F]NaF (1 μCi) was added to the hydroxyapatite suspension. After vortexing for 10 seconds, the suspension was incubated for 10 min at room temperature. The samples were then centrifuged at 10,000 rpm for 3 min and the supernatant was removed. The hydroxyapatite fraction was washed twice with saline (1 mL). Radioactivity in the combined supernatants and the hydroxyapatite fraction was measured using a gamma counter. The proportion of the ^68Ga complex binding to hydroxyapatite was determined as percent of ^68Ga absorbed to hydroxyapatite.
smiles,measurement,setting,value
O=C([O-])CN(CCN(CC(=O)[O-])Cc1cc(CCC(=O)NC(P(=O)(O)O)P(=O)(O)O)ccc1[O-])Cc1cc(CCC(=O)NCCCNC(=O)CCc2ccc(O)c(CN(CCN(CC(=O)O)Cc3cc(CCC(=O)NC(P(=O)(O)O)P(=O)(O)O)ccc3O)CC(=O)O)c2)ccc1[O-].[68Ga+3] [[^68Ga]3],bone to blood ratio,[1]; 2 min,0.5
same,bone to muscle ratio,[1]; 2 min,2.6
same,Biodistribution: Blood,[1]; 2 min post injection,8.33 ± 0.23 % dose/g
same,Biodistribution: Bone,[1]; 2 min post injection,4.17 ± 0.35 % dose/g
same,Biodistribution: Brain,[1]; 2 min post injection,0.28 ± 0.03 % dose/g
same,Biodistribution: Heart,[1]; 2 min post injection,3.45 ± 0.25 % dose/g
same,Biodistribution: Kidney,[1]; 2 min post injection,12.2 ± 1.51 % dose/g
same,Biodistribution: Liver,[1]; 2 min post injection,19.7 ± 1.05 % dose/g
same,Biodistribution: Lung,[1]; 2 min post injection,71.6 ± 6.33 % dose/g
same,Biodistribution: Muscle,[1]; 2 min post injection,1.62 ± 0.47 % dose/g
same,Biodistribution: Pancreas,[1]; 2 min post injection,1.73 ± 0.08 % dose/g
same,Biodistribution: Skin,[1]; 2 min post injection,1.24 ± 0.01 % dose/g
same,Biodistribution: Spleen,[1]; 2 min post injection,12.8 ± 4.35 % dose/g
same,bone to blood ratio,[1]; 30 min,4.8
same,bone to muscle ratio,[1]; 30 min,14
same,Biodistribution: Blood,[1]; 30 min (0.5 hr) post injection,1.92 ± 0.15 % dose/g
same,Biodistribution: Bone,[1]; 30 min (0.5 hr) post injection,9.26 ± 1.45 % dose/g
same,Biodistribution: Brain,[1]; 30 min (0.5 hr) post injection,0.06 ± 0.01 % dose/g
same,Biodistribution: Heart,[1]; 30 min (0.5 hr) post injection,2.02 ± 0.97 % dose/g
same,Biodistribution: Kidney,[1]; 30 min (0.5 hr) post injection,17.1 ± 0.70 % dose/g
same,Biodistribution: Liver,[1]; 30 min (0.5 hr) post injection,9.86 ± 0.66 % dose/g
same,Biodistribution: Lung,[1]; 30 min (0.5 hr) post injection,15.6 ± 1.39 % dose/g
same,Biodistribution: Muscle,[1]; 30 min (0.5 hr) post injection,0.68 ± 0.09 % dose/g
same,Biodistribution: Pancreas,[1]; 30 min (0.5 hr) post injection,1.07 ± 1.04 % dose/g
same,Biodistribution: Skin,[1]; 30 min (0.5 hr) post injection,1.10 ± 0.18 % dose/g
same,Biodistribution: Spleen,[1]; 30 min (0.5 hr) post injection,8.33 ± 2.22 % dose/g
same,bone to blood ratio,[1]; 60 min,13
same,bone to muscle ratio,[1]; 60 min,16
same,Biodistribution: Blood,[1]; 60 min (1 hr) post injection,0.70 ± 0.13 % dose/g
same,Biodistribution: Bone,[1]; 60 min (1 hr) post injection,9.26 ± 1.13 % dose/g
same,Biodistribution: Brain,[1]; 60 min (1 hr) post injection,0.06 ± 0.01 % dose/g
same,Biodistribution: Heart,[1]; 60 min (1 hr) post injection,1.16 ± 0.13 % dose/g
same,Biodistribution: Kidney,[1]; 60 min (1 hr) post injection,7.99 ± 1.08 % dose/g
same,Biodistribution: Liver,[1]; 60 min (1 hr) post injection,23.5 ± 3.13 % dose/g
same,Biodistribution: Lung,[1]; 60 min (1 hr) post injection,41.3 ± 5.15 % dose/g
same,Biodistribution: Muscle,[1]; 60 min (1 hr) post injection,0.57 ± 0.14 % dose/g
same,Biodistribution: Pancreas,[1]; 60 min (1 hr) post injection,0.26 ± 0.02 % dose/g
same,Biodistribution: Skin,[1]; 60 min (1 hr) post injection,0.41 ± 0.02 % dose/g
same,Biodistribution: Spleen,[1]; 60 min (1 hr) post injection,10.3 ± 2.65 % dose/g
same,bone to blood ratio,[1]; 120 min,29
same,bone to muscle ratio,[1]; 120 min,39
same,Biodistribution: Blood,[1]; 120 min post injection,0.37 ± 0.07 % dose/g
same,Biodistribution: Bone,[1]; 120 min post injection,10.6 ± 0.85 % dose/g
same,Biodistribution: Brain,[1]; 120 min post injection,0.05 ± 0.01 % dose/g
same,Biodistribution: Heart,[1]; 120 min post injection,1.05 ± 0.11 % dose/g
same,Biodistribution: Kidney,[1]; 120 min post injection,8.99 ± 0.20 % dose/g
same,Biodistribution: Liver,[1]; 120 min post injection,25.4 ± 2.80 % dose/g
same,Biodistribution: Lung,[1]; 120 min post injection,34.8 ± 1.90 % dose/g
same,Biodistribution: Muscle,[1]; 120 min post injection,0.28 ± 0.04 % dose/g
same,Biodistribution: Pancreas,[1]; 120 min post injection,0.25 ± 0.03 % dose/g
same,Biodistribution: Skin,[1]; 120 min post injection,0.33 ± 0.06 % dose/g
same,Biodistribution: Spleen,[1]; 120 min post injection,15.7 ± 1.59 % dose/g
same,"Biodistribution result in words (organ uptake, retention, excretion)",[1],high liver uptake and less bone localization
same,Hydroxyapatite Binding (%),[2],95.8 ± 0.1%
O=C([O-])CN(CCN(CC(=O)[O-])Cc1cc(CCC(=O)NC(P(=O)(O)O)P(=O)(O)O)ccc1[O-])Cc1cc(CCC(=O)NC(P(=O)(O)O)P(=O)(O)O)ccc1[O-].[68Ga+3] [[^68Ga]2],bone to blood ratio,[1]; 2 min,1.1
same,bone to muscle ratio,[1]; 2 min,4.9
same,Biodistribution: Blood,[1]; 2 min post injection,9.97 ± 1.40 % dose/g
same,Biodistribution: Bone,[1]; 2 min post injection,11.0 ± 1.95 % dose/g
same,Biodistribution: Brain,[1]; 2 min post injection,0.30 ± 0.02 % dose/g
same,Biodistribution: Heart,[1]; 2 min post injection,4.13 ± 0.30 % dose/g
same,Biodistribution: Kidney,[1]; 2 min post injection,19.4 ± 1.38 % dose/g
same,Biodistribution: Liver,[1]; 2 min post injection,2.67 ± 0.12 % dose/g
same,Biodistribution: Lung,[1]; 2 min post injection,5.47 ± 0.57 % dose/g
same,Biodistribution: Muscle,[1]; 2 min post injection,2.26 ± 0.34 % dose/g
same,Biodistribution: Pancreas,[1]; 2 min post injection,2.05 ± 0.23 % dose/g
same,Biodistribution: Skin,[1]; 2 min post injection,3.19 ± 0.45 % dose/g
same,Biodistribution: Spleen,[1]; 2 min post injection,2.08 ± 0.22 % dose/g
same,bone to blood ratio,[1]; 30 min,26
same,bone to muscle ratio,[1]; 30 min,58
same,Biodistribution: Blood,[1]; 30 min (0.5 hr) post injection,0.73 ± 0.28 % dose/g
same,Biodistribution: Bone,[1]; 30 min (0.5 hr) post injection,18.8 ± 2.82 % dose/g
same,Biodistribution: Brain,[1]; 30 min (0.5 hr) post injection,0.03 ± 0.00 % dose/g
same,Biodistribution: Heart,[1]; 30 min (0.5 hr) post injection,0.99 ± 0.13 % dose/g
same,Biodistribution: Kidney,[1]; 30 min (0.5 hr) post injection,2.98 ± 1.13 % dose/g
same,Biodistribution: Liver,[1]; 30 min (0.5 hr) post injection,0.44 ± 0.09 % dose/g
same,Biodistribution: Lung,[1]; 30 min (0.5 hr) post injection,0.96 ± 0.23 % dose/g
same,Biodistribution: Muscle,[1]; 30 min (0.5 hr) post injection,0.32 ± 0.05 % dose/g
same,Biodistribution: Pancreas,[1]; 30 min (0.5 hr) post injection,0.36 ± 0.17 % dose/g
same,Biodistribution: Skin,[1]; 30 min (0.5 hr) post injection,0.71 ± 0.13 % dose/g
same,Biodistribution: Spleen,[1]; 30 min (0.5 hr) post injection,0.48 ± 0.09 % dose/g
same,bone to blood ratio,[1]; 60 min,42
same,bone to muscle ratio,[1]; 60 min,82.7 and 83
same,Biodistribution: Blood,[1]; 60 min (1 hr) post injection,0.47 ± 0.08 % dose/g
same,Biodistribution: Bone,[1]; 60 min (1 hr) post injection,19.7±4.2 % dose/g and 19.7 ± 4.17 % dose/g
same,Biodistribution: Brain,[1]; 60 min (1 hr) post injection,0.02 ± 0.00 % dose/g
same,Biodistribution: Heart,[1]; 60 min (1 hr) post injection,0.57 ± 0.13 % dose/g
same,Biodistribution: Kidney,[1]; 60 min (1 hr) post injection,2.61 ± 0.95 % dose/g
same,Biodistribution: Liver,[1]; 60 min (1 hr) post injection,0.43 ± 0.03 % dose/g
same,Biodistribution: Lung,[1]; 60 min (1 hr) post injection,0.58 ± 0.09 % dose/g
same,Biodistribution: Muscle,[1]; 60 min (1 hr) post injection,0.24 ± 0.04 % dose/g
same,Biodistribution: Pancreas,[1]; 60 min (1 hr) post injection,0.27 ± 0.01 % dose/g
same,Biodistribution: Skin,[1]; 60 min (1 hr) post injection,0.38 ± 0.05 % dose/g
same,Biodistribution: Spleen,[1]; 60 min (1 hr) post injection,0.43 ± 0.05 % dose/g
same,bone to blood ratio,[1]; 120 min,77
same,bone to muscle ratio,[1]; 120 min,103
same,Biodistribution: Blood,[1]; 120 min post injection,0.31 ± 0.09 % dose/g
same,Biodistribution: Bone,[1]; 120 min post injection,23.9 ± 5.54 % dose/g
same,Biodistribution: Brain,[1]; 120 min post injection,0.02 ± 0.00 % dose/g
same,Biodistribution: Heart,[1]; 120 min post injection,0.42 ± 0.08 % dose/g
same,Biodistribution: Kidney,[1]; 120 min post injection,2.86 ± 1.16 % dose/g
same,Biodistribution: Liver,[1]; 120 min post injection,0.40 ± 0.03 % dose/g
same,Biodistribution: Lung,[1]; 120 min post injection,0.40 ± 0.05 % dose/g
same,Biodistribution: Muscle,[1]; 120 min post injection,0.23 ± 0.05 % dose/g
same,Biodistribution: Pancreas,[1]; 120 min post injection,0.31 ± 0.11 % dose/g
same,Biodistribution: Skin,[1]; 120 min post injection,0.33 ± 0.06 % dose/g
same,Biodistribution: Spleen,[1]; 120 min post injection,0.43 ± 0.24 % dose/g
same,"Biodistribution result in words (organ uptake, retention, excretion)",[1],excellent bone uptake and fast kidney excretion; also recorded: excellent bone uptake and retention
same,Hydroxyapatite Binding (%),[2],90.8 ± 1.5%
